Reference: patent publication US20170050957A1, “4-AMINO-6-(HETEROCYCLIC)PICOLINATES AND 6-AMINO-2-(HETEROCYCLIC)PYRIMIDINE-4-CARBOXYLATES AND THEIR USE AS HERBICIDES” (Dow AgroSciences LLC, priority 2013, published 2017)
Where two headings read alike, the source gives them in different places.

What was measured:
[1] = tested on: Key Grass and Sedge Weeds as well as Grass Crops; assay: Post-emergent Test II herbicidal activity (Table 16); assay type: in vivo; conditions: post-emergence, 336 h, 14 d; for pest or weed control at 35 g/ha: 35 g ai/ha; for pest or weed control at 70 g/ha: 70 g ai/ha; for pest or weed control at 140 g/ha: 140 g ai/ha
Procedure, shortened: (§1)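 Visual injury rating (0 = none, 100% = complete kill) made 14 d after treatment, relative to untreated plants. Compounds in an acetone/DMSO/aqueous crop-oil/surfactant spray, at top rate and serial 1/2×-1/16× rates, were applied at 187 L/ha overhead to first-second true leaf plants raised 7-21 d in greenhouse.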

[2] = tested on: Key Broadleaf Weed and Crop Species; assay: Post-emergent Test II herbicidal activity (Table 15); assay type: in vivo; conditions: post-emergence, 336 h, 14 d; for pest or weed control at 35 g/ha: 35 g ai/ha; for pest or weed control at 70 g/ha: 70 g ai/ha; for pest or weed control at 140 g/ha: 140 g ai/ha
Procedure, shortened: as §1

[3] = Cyperus esculentus, yellow nutsedge (Cyperus esculentus), read-out: Visual Growth Reduction (%) 14 Days After Application, CYPES
[4] = Echinochloa crus-galli, barnyardgrass (Echinochloa crus-galli), read-out: Visual Growth Reduction (%) 14 Days After Application, ECHCG
[5] = Oryza sativa, rice (Oryza sativa), read-out: Visual Growth Reduction (%) 14 Days After Application, ORYSA
[6] = Setaria faberi, giant foxtail (Setaria faberi), read-out: Visual Growth Reduction (%) 14 Days After Application, SETFA
[7] = Triticum aestivum, wheat, spring (Triticum aestivum), read-out: Visual Growth Reduction (%) 14 Days After Application, TRZAS
[8] = Zea mays, maize, corn (Zea mays), read-out: Visual Growth Reduction (%) 14 Days After Application, ZEAMX
[9] = Abutilon theophrasti, velvetleaf (Abutilon theophrasti), read-out: Visual Growth Reduction (%) 14 Days After Application, ABUTH
[10] = Amaranthus retroflexus, redroot pigweed (Amaranthus retroflexus), read-out: Visual Growth Reduction (%) 14 Days After Application, AMARE
[11] = Brassica napus, oilseed rape, canola (Brassica napus), read-out: Visual Growth Reduction (%) 14 Days After Application, BRSNN
[12] = Chenopodium album, lambsquarters (Chenopodium album), read-out: Visual Growth Reduction (%) 14 Days After Application, CHEAL
[13] = Euphorbia heterophylla, wild poinsettia (Euphorbia heterophylla), read-out: Visual Growth Reduction (%) 14 Days After Application, EPHHL
[14] = Helianthus annuus, sunflower (Helianthus annuus), read-out: Visual Growth Reduction (%) 14 Days After Application, HELAN

Question: For `COC(=O)c1nc(-c2ccc(Cl)c3ccoc23)c(F)c(N)c1Cl` [Compound 2.24], which melting point is on record?
Answer: Its melting point is 167 °C.

Question: What about the pest or weed control at 35 g/ha [1, 3] of the same compound?
Answer: The pest or weed control at 35 g/ha was 60 to 74%.

Question: And the pest or weed control at 70 g/ha [1, 3]?
Answer: The pest or weed control at 70 g/ha was 75 to 84%.

Question: What about the pest or weed control at 140 g/ha [1, 3] of the same compound?
Answer: Its pest or weed control at 140 g/ha is 85 to 94%.

Question: And the pest or weed control at 35 g/ha [1, 4]?
Answer: The pest or weed control at 35 g/ha was 0 to 29%.

Question: And the pest or weed control at 70 g/ha [1, 4]?
Answer: Its pest or weed control at 70 g/ha is 0 to 29%.

Question: What about the pest or weed control at 140 g/ha [1, 4] of the same compound?
Answer: The pest or weed control at 140 g/ha was 0 to 29%.

Question: What about the pest or weed control at 35 g/ha [1, 5] of the same compound?
Answer: Its pest or weed control at 35 g/ha is 0 to 29%.

Question: What about the pest or weed control at 70 g/ha [1, 5] of the same compound?
Answer: The pest or weed control at 70 g/ha was 0 to 29%.

Question: And the pest or weed control at 140 g/ha [1, 5]?
Answer: Its pest or weed control at 140 g/ha is 0 to 29%.

Question: And the pest or weed control at 35 g/ha [1, 6]?
Answer: The pest or weed control at 35 g/ha was 0 to 29%.

Question: What about the pest or weed control at 70 g/ha [1, 6] of the same compound?
Answer: Its pest or weed control at 70 g/ha is 0 to 29%.

Question: And the pest or weed control at 140 g/ha [1, 6]?
Answer: The pest or weed control at 140 g/ha was 0 to 29%.

Question: And the pest or weed control at 35 g/ha [1, 7]?
Answer: Its pest or weed control at 35 g/ha is 0 to 29%.

Question: And the pest or weed control at 70 g/ha [1, 7]?
Answer: Its pest or weed control at 70 g/ha is 0 to 29%.

Question: And the pest or weed control at 140 g/ha [1, 7]?
Answer: The pest or weed control at 140 g/ha was 0 to 29%.

Question: And the pest or weed control at 35 g/ha [1, 8]?
Answer: Its pest or weed control at 35 g/ha is 0 to 29%.

Question: And the pest or weed control at 70 g/ha [1, 8]?
Answer: The pest or weed control at 70 g/ha was 30 to 44%.

Question: What about the pest or weed control at 140 g/ha [1, 8] of the same compound?
Answer: Its pest or weed control at 140 g/ha is 60 to 74%.

Question: What about the pest or weed control at 35 g/ha [2, 9] of the same compound?
Answer: The pest or weed control at 35 g/ha was 75 to 84%.

Question: What about the pest or weed control at 70 g/ha [2, 9] of the same compound?
Answer: Its pest or weed control at 70 g/ha is 75 to 84%.

Question: What about the pest or weed control at 140 g/ha [2, 9] of the same compound?
Answer: The pest or weed control at 140 g/ha was 95 to 100%.

Question: What about the pest or weed control at 35 g/ha [2, 10] of the same compound?
Answer: The pest or weed control at 35 g/ha was 95 to 100%.

Question: What about the pest or weed control at 70 g/ha [2, 10] of the same compound?
Answer: The pest or weed control at 70 g/ha was 95 to 100%.

Question: What about the pest or weed control at 140 g/ha [2, 10] of the same compound?
Answer: Its pest or weed control at 140 g/ha is 95 to 100%.

Question: What about the pest or weed control at 35 g/ha [2, 11] of the same compound?
Answer: The pest or weed control at 35 g/ha was 60 to 74%.

Question: And the pest or weed control at 70 g/ha [2, 11]?
Answer: Its pest or weed control at 70 g/ha is 75 to 84%.

Question: And the pest or weed control at 140 g/ha [2, 11]?
Answer: Its pest or weed control at 140 g/ha is 75 to 84%.

Question: And the pest or weed control at 35 g/ha [2, 12]?
Answer: Its pest or weed control at 35 g/ha is 95 to 100%.

Question: And the pest or weed control at 70 g/ha [2, 12]?
Answer: Its pest or weed control at 70 g/ha is 95 to 100%.

Question: What about the pest or weed control at 140 g/ha [2, 12] of the same compound?
Answer: The pest or weed control at 140 g/ha was 95 to 100%.

Question: What about the pest or weed control at 35 g/ha [2, 13] of the same compound?
Answer: The pest or weed control at 35 g/ha was 60 to 74%.

Question: And the pest or weed control at 70 g/ha [2, 13]?
Answer: The pest or weed control at 70 g/ha was 75 to 84%.

Question: And the pest or weed control at 140 g/ha [2, 13]?
Answer: The pest or weed control at 140 g/ha was 75 to 84%.

Question: And the pest or weed control at 35 g/ha [2, 14]?
Answer: The pest or weed control at 35 g/ha was 75 to 84%.

Question: And the pest or weed control at 70 g/ha [2, 14]?
Answer: The pest or weed control at 70 g/ha was 75 to 84%.

Question: And the pest or weed control at 140 g/ha [2, 14]?
Answer: Its pest or weed control at 140 g/ha is 85 to 94%.
